In patent US11414422B2, “Substituted pyrido[4,3-b]indoles and azepino[4,5-b]indoles as inhibitors of cGAS” (The Rockefeller University, priority 2018, dated 2022):

Columns and labels:
h-cGAS = molecular target: T1, h-cGAS (Homo sapiens, UniProt Q8N884); test: cGAS biochemical assay, RapidFire 365 mass spectrometry (RF-MS); settings: full-length h-cGAS 100 nM, dsDNA 25 nM, ATP and GTP 100 μM, 7 h at RT
T1 construct: The final concentration of full-length h-cGAS, dsDNA, ATP, and GTP were 100 nM

THP1-Dual cells = test: Cell-based Lucia luciferase assay in THP1-Dual cells (dsDNA transfection); settings: Homo sapiens, 1 h pre-incubation, 100-bp dsDNA transfection for 24 h

T1 sequence (Q8N884 whole entry): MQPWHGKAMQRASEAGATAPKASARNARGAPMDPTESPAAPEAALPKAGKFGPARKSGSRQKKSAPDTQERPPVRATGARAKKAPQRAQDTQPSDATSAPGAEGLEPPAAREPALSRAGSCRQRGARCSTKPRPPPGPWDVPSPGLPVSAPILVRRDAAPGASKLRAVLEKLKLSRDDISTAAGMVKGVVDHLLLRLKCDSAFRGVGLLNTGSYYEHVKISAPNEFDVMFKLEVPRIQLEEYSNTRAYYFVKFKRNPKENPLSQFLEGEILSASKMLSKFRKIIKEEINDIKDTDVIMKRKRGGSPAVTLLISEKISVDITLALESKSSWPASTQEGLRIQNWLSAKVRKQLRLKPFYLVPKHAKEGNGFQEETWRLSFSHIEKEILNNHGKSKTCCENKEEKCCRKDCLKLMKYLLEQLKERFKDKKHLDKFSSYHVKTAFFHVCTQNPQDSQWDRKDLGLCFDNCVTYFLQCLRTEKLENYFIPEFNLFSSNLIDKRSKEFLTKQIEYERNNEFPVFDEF

Structure (SMILES)	IC50 (h-cGAS) [nM]	IC50 (THP1-Dual cells) [µM]
Cn1c2c(c3ccc(Cl)c(F)c31)CN(C(=O)CO)CC2 [TDI-006570]	138	> 40
O=C(CO)N1CCc2c(c3ccc(Br)c(F)c3n2CC(F)(F)F)C1 [TDI-008130]	1120	25.8
O=C(CO)N1CCc2c(c3c(-c4cn[nH]c4)cc(Cl)c(F)c3n2C(F)F)C1 [TDI-008136]	416	15.9
O=C(CO)N1CCc2c(c3ccc(Br)c(F)c3n2C(F)F)C1 [TDI-008179]	506	34
O=C(CO)N1CCc2[nH]c3c(Cl)c(Cl)cc(CC4CCCC4)c3c2C1 [TDI-008439]	663	
O=C(CO)N1CCc2[nH]c3c(Cl)c(Cl)cc(CN4CCCC4)c3c2C1 [TDI-008440]	2230	
O=C(CO)N1CCc2[nH]c3c(Cl)c(Cl)cc(CN4CCCCC4)c3c2C1 [TDI-008441]	5220	
O=C(CO)N1CCc2[nH]c3c(Cl)c(Cl)cc(CN4CCOCC4)c3c2C1 [TDI-008442]	706	
O=C(CO)N1CCc2[nH]c3c(Cl)c(Cl)cc(Cc4ccc(-n5cccn5)cc4)c3c2C1 [TDI-008443]	586	
Cn1nccc1-c1cc(Cl)c(Cl)c2[nH]c3c(c12)CN(C(=O)CO)CC3 [TDI-008444]	3240	
Cc1ncccc1-c1cc(Cl)c(Cl)c2[nH]c3c(c12)CN(C(=O)CO)CC3 [TDI-008446]	901	
CN1CC=C(c2cc(Cl)c(Cl)c3[nH]c4c(c23)CN(C(=O)CO)CC4)CC1 [TDI-008449]	420	
O=C(CO)N1CCc2[nH]c3c(Cl)c(Cl)cc(-c4cnc(C(F)(F)F)nc4)c3c2C1 [TDI-008451]	9780	
Cn1nc(C(F)(F)F)cc1-c1cc(Cl)c(Cl)c2[nH]c3c(c12)CN(C(=O)CO)CC3 [TDI-008452]	2910	
Cc1nc2ccc(-c3cc(Cl)c(Cl)c4[nH]c5c(c34)CN(C(=O)CO)CC5)cc2n1C [TDI-008460]	830	
O=C1COc2cc(-c3cc(Cl)c(Cl)c4[nH]c5c(c34)CN(C(=O)CO)CC5)ccc2N1 [TDI-008462]	1200	
O=C(CO)N1CCc2[nH]c3c(Cl)c(Cl)cc(-c4ccc(S(=O)(=O)NCCCO)cc4)c3c2C1 [TDI-008464]	3910	
CNC(=O)c1cc(Cl)c(F)c2[nH]c3c(c12)CN(C(=O)CO)CC3 [TDI-008520]	1040	
Cc1nc(C)c(-c2cc(Cl)c(Cl)c3[nH]c4c(c23)CN(C(=O)CO)CC4)[nH]1 [TDI-008605]	568	
Cn1ccc(-c2cc(Cl)c(OCC(F)F)c3[nH]c4c(c23)CN(C(=O)CO)CC4)n1 [TDI-008796]	984	> 40
O=C(CO)N1CCc2[nH]c3c(F)c(Cl)cc(N4CCC5CC54)c3c2C1 (stereo not drawn) [TDI-008861]	480	> 10
C[C@@H]1CCN(c2cc(Cl)c(F)c3[nH]c4c(c23)CN(C(=O)CO)CC4)C1 [TDI-008862]	478	
N#CC1CCN(c2cc(Cl)c(F)c3[nH]c4c(c23)CN(C(=O)CO)CC4)C1 (stereo not drawn) [TDI-008865]	1580	> 10

Results, then the compound that gave them:

IC50 (h-cGAS) [nM]	IC50 (THP1-Dual cells) [µM]	Structure (SMILES)
22.8	4.95	O=C(CO)N1CCc2[nH]c3c(Cl)c(Cl)cc(-c4ccco4)c3c2C1 [TDI-008070]
39.3	9	O=C(CO)N1CCc2[nH]c3c(Cl)c(Cl)cc(-c4ccccc4)c3c2C1 [TDI-008071]
20.4	6.23	O=C(CO)N1CCc2[nH]c3c(Cl)c(Cl)cc(-c4cccnc4)c3c2C1 [TDI-008073]
19.4	6.85	O=C(CO)N1CCc2[nH]c3c(Cl)c(Cl)cc(-c4cncnc4)c3c2C1 [TDI-008074]
25.2	6.43	O=C(CO)N1CCc2[nH]c3c(Cl)c(Cl)cc(-c4cnn5ccccc45)c3c2C1 [TDI-008116]
18.2	6.19	O=C(CO)N1CCc2[nH]c3c(Cl)c(Cl)cc(-c4ccc5nonc5c4)c3c2C1 [TDI-008117]
32.2	9.9	O=C(CO)N1CCc2[nH]c3c(F)c(Cl)cc(-c4cn[nH]c4)c3c2C1 [TDI-008185]
402	> 40	COCCn1c2c(c3c(-c4ccn(C)n4)cc(Cl)c(F)c31)CN(C(=O)CO)CC2 [TDI-008292]
23.2	6.52	CCn1ccc(-c2cc(Cl)c(Cl)c3[nH]c4c(c23)CN(C(=O)CO)CC4)n1 [TDI-008371]
112		COCCc1cc(Cl)c(Cl)c2[nH]c3c(c12)CN(C(=O)CO)CC3 [TDI-008438]
35		Cc1cc(-c2cc(Cl)c(Cl)c3[nH]c4c(c23)CN(C(=O)CO)CC4)ccn1 [TDI-008445]
24.9		Cc1cncc(-c2cc(Cl)c(Cl)c3[nH]c4c(c23)CN(C(=O)CO)CC4)c1 [TDI-008447]
25.9		O=C(CO)N1CCc2[nH]c3c(Cl)c(Cl)cc(-c4cncc(F)c4)c3c2C1 [TDI-008448]
54.5		O=C(CO)N1CCc2[nH]c3c(Cl)c(Cl)cc(-c4cncc(CO)c4)c3c2C1 [TDI-008450]
154		O=C(CO)N1CCc2[nH]c3c(Cl)c(Cl)cc(-c4cncc(C(F)(F)F)c4)c3c2C1 [TDI-008455]
44.6		O=C(CO)N1CCc2[nH]c3c(Cl)c(Cl)cc(-c4ccc5c(c4)OCO5)c3c2C1 [TDI-008457]

IC50 (h-cGAS) [nM]	IC50 (THP1-Dual cells) [µM]	Structure (SMILES)
344		Cn1c(=O)[nH]c2cc(-c3cc(Cl)c(Cl)c4[nH]c5c(c34)CN(C(=O)CO)CC5)ccc21 [TDI-008461]
18		O=C(CO)N1CCc2[nH]c3c(Cl)c(Cl)cc(-c4ccn(C(F)F)n4)c3c2C1 [TDI-008474]
365		CC(=O)Nc1cc(Cl)c(F)c2[nH]c3c(c12)CN(C(=O)CO)CC3 [TDI-008522]
22.6	5.8	Cc1noc(-c2cc(Cl)c(Cl)c3[nH]c4c(c23)CN(C(=O)CO)CC4)n1 [TDI-008768]
30.5	12.9	Cc1nnc(-c2cc(Cl)c(Cl)c3[nH]c4c(c23)CN(C(=O)CO)CC4)o1 [TDI-008777]
17.2	3.41	Cn1ccc(-c2cc(Br)c(F)c3[nH]c4c(c23)CN(C(=O)CO)CC4)n1 [TDI-008783]
351		CCOc1c(Cl)cc(-c2ccn(C)n2)c2c3c([nH]c12)CCN(C(=O)CO)C3 [TDI-008797]
350	> 10	O=C(CO)N1CCc2[nH]c3c(F)c(Cl)cc(N4CCCC4)c3c2C1 [TDI-008860]
147	> 10	CC1CCN(c2cc(Cl)c(F)c3[nH]c4c(c23)CN(C(=O)CO)CC4)C1 (stereo not drawn) [TDI-008863]
455	> 10	O=C(CO)N1CCc2[nH]c3c(F)c(Cl)cc(N4CCC(O)C4)c3c2C1 (stereo not drawn) [TDI-008864]
452	> 10	O=C(CO)N1CCc2[nH]c3c(F)c(Cl)cc(N4CCC(F)(F)C4)c3c2C1 [TDI-008866]
77.6	16.1	Cc1nc(-c2cc(Cl)c(Cl)c3[nH]c4c(c23)CN(C(=O)CO)CC4)no1 [TDI-008937]
24.5	2.89	C[C@@H]1CN(C(=O)CO)Cc2c1[nH]c1c(F)c(Cl)cc(-c3ccn(C)n3)c21 [TDI-009000]
32.7	3.18	C[C@H]1CN(C(=O)CO)Cc2c1[nH]c1c(F)c(Cl)cc(-c3ccn(C)n3)c21 [TDI-009001]
23.3	1.15	Cn1ncc(-c2cc(Cl)c(Cl)c3[nH]c4c(c23)CN(C(=O)CO)CC4)n1 [TDI-009007]
